Reference: patent publication US20230150924A1, “NOVEL COMPOUND HAVING CANCER METASTASIS INHIBITORY ACTIVITY, PREPARATION METHOD THEREFOR, AND PHARMACEUTICAL COMPOSITION FOR INHIBITING CANCER METASTASIS AND INVASION OR TREATING COLORECTAL CANCER, COMPRISING COMPOUND” (CELLGENTEK CO., LTD., priority 2019, published 2023)
Where two headings read alike, the source gives them in different places.

Assays:
KAI1 promoter = KAI1 promoter luciferase reporter assay in transfected Caco2 cells; assay type: cell-based, human; settings: Homo sapiens, Caco-2, 16 h, read-out: Relative KAI promoter activity
[1] = tested on: invasion of colorectal cancer cells; experiment: In vivo relative invation (invasion; EV and KITENIN controls, no method described); settings: relative to EV (=1); KIT = KITENIN
[2] = 1 μM compound, 16 hours, transfected Caco2 cells, luciferase activity relative to DMSO control (=1)

Compound	fold induction at 1 µM (KAI1 promoter; [2])	In vivo relative invation [1]	fold induction at 1 µM (KAI1 promoter)
O=C(CNC(=O)c1ccccc1CN1CCC(N2CCCCC2)CC1)c1ccccc1 [Example 301, 2-([1,4′-bipiperidin]-1′-ylmethyl)-N-(2-oxo-2-phenylethyl)benzamide]	1.61	1.146	–
CCCCN(C)Cc1ccc(C(=O)NCC(=O)c2ccccc2)cc1 [Example 271, 4-((butyl (methyl)amino)methyl)-N-(2-oxo-2-phenylethyl)benzamide]	1.31	1.228	–
CC(Oc1ccccc1)C(=O)NCC(=O)c1ccccc1 (stereo not shown) [Example 2, N-(2-oxo-2-phenylethyl)-2-phenoxypropanamide]	–	0.8651	1.14
CCCN(CCC)Cc1ccc(C(=O)NCC(=O)c2ccccc2)cc1 [Example 272, 4-((dipropylamino)methyl)-N-(2-oxo-2-phenylethyl)benzamide]	1.59	1.23	–
O=C(CCc1ccccc1)NCC(=O)c1ccccc1 [Example 9, N-(2-oxo-2-phenylethyl)-3-phenylpropanamide]	1.14	0.8419	–
COc1cc(OC)cc(C(=O)NCC(=O)c2ccccc2)c1 [Example 42, 3,5-dimethoxy-N-(2-oxo-2-phenylethyl)benzamide]	1.12	1.525	–
Cc1cccc(C(=O)NCC(=O)c2ccc(N3CCOCC3)cc2)c1 [Example 141, 3-methyl-N-(2-(4-morpholinophenyl)-2-oxoethyl)benzamide]	1.06	1.393	–
O=C(CNC(=O)c1ccccc1OC1CCN(C(=O)c2ccc(C(F)(F)F)cc2)CC1)c1ccccc1 [Example 193, N-(2-oxo-2-phenylethyl)-2-((1-(4-(trifluoromethyl)benzoyl)piperidin-4-yl)oxy)benzamide]	0.82	1.214	–
COc1ccc(CNC(=O)COc2ccccc2C(=O)NCC(=O)c2ccccc2)cc1OC [Example 215, 2-(2-((3,4-dimethoxybenzyl)amino)-2-oxoethoxy)-N-(2-oxo-2-phenylethyl)benzamide]	0.975	1.304	–
O=C(COc1ccccc1C(=O)NCC(=O)c1ccccc1)NCc1ccccc1 [Example 204, 2-(2-(benzylamino)-2-oxoethoxy)-N-(2-oxo-2-phenylethyl)benzamide]	1.3	1.095	–
CN(CCO)Cc1cccc(C(=O)NCC(=O)c2ccccc2)c1 [Example 243, 3-(((2-hydroxyethyl) (methyl)amino)methyl)-N-(2-oxo-2-phenylethyl)benzamide]	1.48	1.105	–
O=C(CNC(=O)c1cccc(Cl)c1Cl)c1ccccc1 [Example 37, 2,3-dichloro-N-(2-oxo-2-phenylethyl)benzamide]	1.17	0.9648	–
CN(C)c1ccc(C(=O)CNC(=O)CC(C)(C)C)cc1 [Example 102, N-(2-(4-(dimethylamino)phenyl)-2-oxoethyl)-3,3-dimethylbutanamide]	2.53	1.121	–
O=C(CNC(=O)c1ccccc1OC1CCN(C(=O)c2cccc([N+](=O)[O-])c2)CC1)c1ccccc1 [Example 195, 2-((1-(3-nitrobenzoyl)piperidin-4-yl)oxy)-N-(2-oxo-2-phenylethyl)benzamide]	1.08	1.139	–
CC(=O)Oc1ccccc1C(=O)N1CCC(Oc2ccccc2C(=O)NCC(=O)c2ccccc2)CC1 [Example 176, 2-(4-(2-((2-oxo-2-phenylethyl)carbamoyl)phenoxy)piperidine-1-carbonyl)phenylacetate]	1.08	1.26	–
O=C(COc1ccccc1C(=O)NCC(=O)c1ccccc1)NCc1cccc(F)c1 [Example 205, 2-(2-((fluorobenzyl)amino)-2-oxoethoxy)-N-(2-oxo-2-phenylethyl)benzamide]	1.1	1.166	–
O=C(CNC(=O)c1ccccc1F)c1ccc(Cl)cc1 [Example 44, N-(2-(4-chlorophenyl)-2-oxoethyl)-2-fluorobenzamide]	0.98	0.9752	–
Cc1cc(C)cc(C(=O)NCC(=O)c2ccccc2)c1 [Example 40, 3,5=dimethyl-N-(2-oxo-2-phenylethyl)benzamide]	1	1.173	–
CC(C)N(C)Cc1ccc(C(=O)NCC(=O)c2ccccc2)cc1 [Example 256, 4-((isopropyl(methyl)amino)methyl)-N-(2-oxo-2-phenylethyl)benzamide]	2.25	1.267	–
O=C(CNC(=O)c1ccccc1Cl)c1ccc(N2CCOCC2)cc1 [Example 138, 2-chloro-N-(2-(4-morpholinophenyl)-2-oxoethyl)benzamide]	1.15	1.258	–
CN(C)c1ccc(C(=O)CNC(=O)c2ccc(C(F)(F)F)cc2)cc1 [Example 114, N-(2-(4-(dimethylamino)phenyl)-2-oxoethyl)-4-(trifluoromethyl)benzamide]	1.38	1.197	–
O=C(CNC(=O)c1ccc(Cl)cc1)c1cccnc1 [Example 130, 4-chloro-N-(2-oxo-2-(pyridin-3-yl)ethyl)benzamide]	1.32	0.9875	–
C=CC(=O)N1CCC(Oc2ccccc2C(=O)NCC(=O)c2ccccc2)CC1 [Example 160, 2-((1-acryloylpiperidin-4-yl)oxy)-N-(2-oxo-2-phenylethyl)benz amide]	1.05	1.067	–
CCCCN(CCO)Cc1ccc(C(=O)NCC(=O)c2ccccc2)cc1 [Example 268, 4-((butyl(2-hydroxyethyl)amino)methyl)-N-(2-oxo-2-phenylethyl)benzamide]	1.6	1.22	–
O=C(CNC(=O)c1ccc(CN2CCc3ccccc3C2)cc1)c1ccccc1 [Example 254, 4-((3,4-dihydroisoquinolin-2(1H)-yl)methyl)-N-(2-oxo-2-phenylethyl)benzamide]	2.08	0.9143	–
COc1ccc(C(=O)NCC(=O)c2ccccc2)cc1 [Example 12, 4-methoxy-N-(2-oxo-2-phenylethyl)benzamide]	1.75	1.357	–
COc1cccc(NC(=O)COc2ccccc2C(=O)NCC(=O)c2ccccc2)c1 [Example 209, 2-(2-((3-methoxyphenyl)amino)-2-oxoethoxy)-N-(2-oxo-2-phenylethyl)benzamide]	1.12	1.07	–
CN(C)Cc1cccc(C(=O)NCC(=O)c2ccccc2)c1 [Example 231, 3-((dimethylamino)methyl)-N-(2-oxo-2-phenylethyl)benzamide]	1.56	1.122	–
CC(C)(C)C(=O)N1CCC(Oc2ccccc2C(=O)NCC(=O)c2ccccc2)CC1 [Example 179, N-(2-oxo-2-phenylethyl)-2-((1-pivaloylpiperidin-4-yl)oxy)benzamide]	0.97	1.081	–
